Test results taken from the METLIN SMRT retention time set (Domingo-Almenara et al. 2019).

Assay: gradient 5% acetonitrile 3 min, to 50% in 2 min, to 85% in 15 min, held 3 min, 100 µL/min
Settings: column: Zorbax Extend-C18 2.1 x 50 mm; eluents: water / acetonitrile, 0.1% formic acid
In short: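 Retention time was recorded from adduct peaks, which were picked computationally and each inspected manually. Pure standards ran in mixtures of ~100 molecules on HPLC coupled to a quadrupole time-of-flight mass spectrometer, in positive and negative ionization mode, through a Zorbax Extend-C18 column (2.1 × 50 mm, 1.8 μm) at 100 μL/min. Eluents were water and acetonitrile, each with 0.1% formic acid.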

Row | RP-LC retention time | Compound
1 | 586 s | CN1CCC(N2CCN(c3ncccc3-c3nnc(-c4ccc(Cl)cc4)o3)CC2)CC1
2 | 657 s | O=C(Nc1ccc(-n2cnc(C(=O)N3CCSCC3)c2)nc1)C1CC1
3 | 877 s | COc1cccc(NC(=O)Cn2nc3c(Oc4ccc(Cl)cc4)nccn3c2=O)c1
4 | 761 s | COc1ccc(-c2csc(Nc3ccccn3)n2)cc1OC
5 | 742 s | O=C(Nc1cccc(-c2ccc(N3CCCCC3)nn2)c1)Nc1ccccc1F
6 | 929 s | CCOC(=O)c1[nH]c(C)c(CN(Cc2ccc3c(c2)OCO3)C(=O)C2CC2)c1C
7 | 717 s | O=C(Nc1cc(F)ccc1F)N1CCCC1c1nncn1-c1ccccc1 (stereo unspecified)
8 | 622 s | COc1ccc(CC(=O)N2CCC(c3nncn3C(C)C)CC2)cc1
9 | 702 s | Nc1cc(C2CCN(S(=O)(=O)c3cccc4cccnc34)CC2)no1
10 | 899 s | COc1cccc(Cc2nc(-c3ccc4c(c3)nc(C)c(=O)n4C)no2)c1
11 | 719 s | CC(=O)Nc1cccc2c(C(=O)NC3CCCC3)ccnc12
12 | 1090 s | COc1ccc(-c2nnc(-c3ccccc3)o2)cc1S(=O)(=O)N1CCC(C)CC1
13 | 966 s | Cc1nn(-c2ccccc2)c2sc(C(=O)NC(C)C)cc12
14 | 622 s | O=C1OC2CC1N(C(=O)C1CC=CCC1)C2 (stereo unspecified)
15 | 898 s | Fc1cccc(CN2CCO[C@@H](COc3ccccn3)[C@@H]2c2ccccc2)c1
16 | 676 s | Cc1ccc(C)c(NC(=O)N2CCCC(Cn3cnc4cccnc43)C2)c1 (stereo unspecified)
17 | 570 s | CC(=O)N1CCc2c(c(CNC(=O)Cc3c(C)noc3C)nn2C)C1
18 | 798 s | Cc1nc(Cn2cccc2C(=O)Nc2cccc(C#N)c2)no1
19 | 792 s | CCCCCN1C(=O)C2(NCCc3c2[nH]c2ccc(C)cc32)c2ccccc21 (stereo unspecified)
20 | 1090 s | COc1ccc2nc(-c3ccc(Cl)cc3)cc(C(=O)O)c2c1
21 | 788 s | Cc1ccc(-c2noc(C3CCCN3S(=O)(=O)c3c(C)c(C)cc(C)c3C)n2)cc1 (stereo unspecified)
22 | 791 s | O=C(C1CCC1)N1CCCC(OCc2nc(-c3ccccc3)no2)C1 (stereo unspecified)
23 | 775 s | COC(=O)c1cn(CC(=O)Nc2ccc(Br)cc2F)c2nc(C)ccc2c1=O

Row | RP-LC retention time | Compound
24 | 1040 s | O=C(NCc1ccccc1)c1cc(-c2ccc(F)cc2)ns1
25 | 846 s | CC(C)CNC(=O)N1CCC(c2noc(-c3ccccc3)n2)C1 (stereo unspecified)
26 | 793 s | Cc1cccc(N2C=C(C(=O)N3CCOCC3)S(=O)(=O)c3ccc(F)cc32)c1
27 | 708 s | CCS(=O)(=O)N1CCCc2cc(C(=O)NCC3CCCO3)ccc21 (stereo unspecified)
28 | 621 s | COCCC1(N(C)C)CCN(C(=O)CC2CCCCC2)CC1
29 | 709 s | CC(=O)N1CCc2ccc(C(=O)N3CCCCCC3)cc21
30 | 801 s | COc1cc(NC(=O)NC2CCN(c3nc4ccccc4n(C)c3=O)CC2)cc(OC)c1
31 | 619 s | CN1CCC2(CC1)CN(C(=O)C1CCC1)Cc1ccccc1O2
32 | 616 s | Cc1cccc(NC(=O)N2CCC3(CC2)NC(=O)c2ccccc2N3C)c1
33 | 786 s | Cc1cc(C)cc(NC(=O)Cc2nnc(-c3ccc4ncccc4c3)o2)c1
34 | 662 s | CC1(C)C(=O)NCCN1C(=O)c1cccc(C(F)(F)F)c1
35 | 705 s | CCOCCCNCc1ccc(-c2ccc(Br)cc2)o1
36 | 1220 s | Cc1ccc(-c2nc(-c3ccc4c(c3)nc(C)c(=O)n4C)no2)c(C)c1
37 | 629 s | Cc1cc(C)n(Cc2ccc(C(=O)N3CCN(c4cc(=O)n(C)c(=O)n4C)CC3)o2)n1
38 | 607 s | CC(C)C(=O)Nc1ccc2c(c1)nc(CN1CCOCC1)n2C(C)C
39 | 747 s | O=C(NCCC1=CCCCC1)c1nc(-c2ccnc(N3CCCC3)c2)no1
40 | 737 s | Cc1noc(-c2ccnc(-n3cnc(C(=O)N(C)C4CCCCC4)c3)c2)n1
41 | 935 s | CC(NC(=O)C1CCN(S(C)(=O)=O)c2cc(Cl)ccc2O1)c1ccccc1 (stereo unspecified)
42 | 888 s | COc1ccc2c(=O)c(Oc3ccccc3F)c(C)oc2c1
43 | 623 s | Cc1ccc(NC(=O)N2CCN(C3=CC4=NCC(C)N4C=N3)CC2)c(C)c1 (stereo unspecified)
44 | 1160 s | COc1ccccc1-c1nc(Cn2nnc(-c3nc(-c4ccc(F)cc4)no3)c2C)c(C)o1
45 | 628 s | Cc1nnc(CNC(=O)C(=O)Nc2ccc(Cl)cn2)o1
46 | 748 s | CCC(C)C(NC(=O)c1cccc(F)c1)C(=O)Nc1nc2ccccc2[nH]1 (stereo unspecified)

Row | RP-LC retention time | Compound
47 | 902 s | Cc1cccc(S(=O)(=O)N2CCC(c3nc(C(=O)N4CCCC4)c(C)o3)CC2)c1
48 | 647 s | CCNc1cc(N2CCC(CCC(=O)NCc3ccccc3)CC2)ncn1
49 | 740 s | COCCN1CCC2(CCC1=O)CCN(C(=O)Nc1ccc(Br)cc1)CC2
50 | 770 s | CCN(Cc1ccccc1)C(=O)[C@H]1[C@@H](c2cc(OC)c(OC)c(OC)c2)c2cc3c(cc2[C@@H](O)[C@@H]1CO)OCO3
51 | 605 s | O=C(NC1CC1)[C@@H]1C[C@H](Oc2cccnc2)CN1C(=O)CC1CCCC1
52 | 853 s | CCOC(=O)CCNC(=O)N1c2ccccc2CC1c1nc(C2CC2)no1 (stereo unspecified)
53 | 1060 s | Cc1ccc(Cn2c(N3CCCC(C(=O)Nc4ccc(F)cc4)C3)nc3ccsc3c2=O)cc1 (stereo unspecified)
54 | 808 s | CCOC(=O)c1c(C)[nH]c(C(=O)N2CCCC(C(=O)NCc3cccc(F)c3)C2)c1C (stereo unspecified)
55 | 849 s | Cc1ccc2nc(-c3cccc(Br)c3)c(Nc3ccccc3C)n2c1
56 | 572 s | CCOC(=O)N1CCC(Nc2c(N3CCN(c4ccccn4)CC3)c(=O)c2=O)CC1
57 | 1030 s | Cc1cccc(C)c1Nc1c(-c2ccc(Cl)cc2)nc2cnccn12
58 | 770 s | Cc1cc(C2CCCN2C(=O)c2ccc(C)s2)no1 (stereo unspecified)
59 | 873 s | CCN(CC)C(=O)C1CCN(S(=O)(=O)c2ccc3c(c2)sc(=O)n3C(C)C)CC1
60 | 626 s | Cc1ccc(-n2c(=O)c3c(cc(C)n3C)n(CC(=O)Nc3c(C)cc(C)cc3C)c2=O)cc1
61 | 1140 s | CCOc1ccc(-c2noc(Cc3nnc(-c4cccc(Cl)c4)o3)n2)cc1
62 | 800 s | CCC(=O)N(C1CCOCC1)C1CCN(S(=O)(=O)c2ccc(OC)cc2)CC1
63 | 824 s | COc1ccc(-c2nnc(N3CCC(C(=O)NCc4cc(F)ccc4F)CC3)o2)cc1
64 | 858 s | Cc1c(Cl)cccc1NC(=O)C1CCN(S(=O)(=O)c2ccc3c(c2)NC(=O)C(C)O3)CC1 (stereo unspecified)
65 | 868 s | COc1cc(NS(=O)(=O)c2ccc3c(c2)C(=O)N(C)c2ncccc2O3)cc(OC)c1
66 | 735 s | CCNc1nc(C)cc(N2CCN(S(=O)(=O)c3ccc(Cl)cc3)CC2)n1
67 | 709 s | COCCNC(=O)CSc1cn(CC(=O)N2CC(C)OC(C)C2)c2ccccc12 (stereo unspecified)
68 | 670 s | CCN1CCN(C(=O)CN2c3ccc(Br)cc3-c3ccccc3S2(=O)=O)CC1
69 | 633 s | CCS(=O)(=O)Nc1ccc2nc(N3CCN(c4ccccc4OC)CC3)cc(C(=O)O)c2c1

Row | RP-LC retention time | Compound
70 | 801 s | Cc1cccc(Cn2ccnc2C(N)=O)c1
71 | 792 s | CCOc1ccc(C(=O)NC(C(=O)Nc2nc3ccccc3[nH]2)C(C)CC)cc1OCC (stereo unspecified)
72 | 929 s | Cc1ccc(S(=O)(=O)/C=C/C#N)cc1
73 | 1140 s | C=CCn1c(=O)c2ccccc2n(Cc2nc(-c3ccc(C)c(C)c3)no2)c1=O
74 | 1020 s | COC(=O)c1cc(S(=O)(=O)N2CCCC2C(=O)Nc2ccc(C(C)C)cc2)cn1C (stereo unspecified)
75 | 920 s | c1cc2nnc(C3CCC3)n2nc1N1CCCC1
76 | 557 s | CCOC(=O)c1c[nH]c2ccc(NC(C)=O)cc2c1=O
77 | 780 s | CCn1cnc2ccc(-c3noc(-c4ccc(OC)c(F)c4)n3)cc21
78 | 615 s | COCCCN1CN=C(Nc2nc(C)c3cccc(OC)c3n2)NC1
79 | 1170 s | Cc1ccc(-c2nc(C3CCN(S(=O)(=O)c4ccccc4F)CC3)no2)cc1
80 | 867 s | O=c1c2nc(-c3ccc(F)cc3)cn2ccn1-c1cccc(Cl)c1
81 | 736 s | Cc1oc(-c2[nH]ncc2C(=O)N2CCCC2)cc1S(=O)(=O)NCCC(C)C
82 | 901 s | Cc1cc(C)cc(-n2ccn(Cc3nc(-c4cccc(F)c4)no3)c(=O)c2=O)c1
83 | 1010 s | COC(=O)CCNC(=O)C1c2ccccc2C(=O)N(C2CCCCC2)C12CCCCC2 (stereo unspecified)
84 | 599 s | CCn1cnnc1C1CCN(C(=O)C2(c3ccc(OC)cc3)CC2)CC1
85 | 859 s | COc1ccc(CNC(=O)c2nnn(Cc3nc(-c4ccccc4)oc3C)c2N)cc1OC
86 | 615 s | Cc1ccc(CNC(=O)C2(C)CCN(S(=O)(=O)c3ccc(Cl)cc3)CC2)cc1
87 | 1200 s | CC1=NS(=O)(=O)N(Cc2ccccc2)C=C1C(=O)OCc1ccc(Br)cc1
88 | 779 s | CCOc1cc(S(=O)(=O)Nc2cccc(C)n2)c(C)cc1C
89 | 742 s | CC(=O)N1CCc2cc(N3CC(C(=O)Nc4cccc(Cl)c4F)CC3=O)ccc21 (stereo unspecified)
90 | 674 s | COc1ccc(CNC(=O)c2c(C)sc3ccn(C)c(=O)c23)cc1OC
91 | 794 s | O=C(NCc1ccccc1F)c1cc2n(n1)CCCC2
